For the experiment, the target named is T1, SMYD3 (Homo sapiens, UniProt Q9H7B4).
T1 sequence (Q9H7B4 1-428): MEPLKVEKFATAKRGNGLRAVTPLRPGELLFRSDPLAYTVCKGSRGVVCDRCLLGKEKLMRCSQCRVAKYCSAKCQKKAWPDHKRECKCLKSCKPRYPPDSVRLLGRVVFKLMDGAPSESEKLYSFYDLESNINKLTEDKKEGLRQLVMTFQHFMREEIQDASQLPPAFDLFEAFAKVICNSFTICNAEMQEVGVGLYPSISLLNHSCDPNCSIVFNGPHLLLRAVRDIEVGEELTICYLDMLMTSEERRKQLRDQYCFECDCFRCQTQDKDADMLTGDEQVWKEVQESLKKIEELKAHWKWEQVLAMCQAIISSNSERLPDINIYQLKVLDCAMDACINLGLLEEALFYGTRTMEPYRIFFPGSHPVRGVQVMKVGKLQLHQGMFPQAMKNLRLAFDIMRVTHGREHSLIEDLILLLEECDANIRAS
As to the kind of experiment: SMYD3 biochemical assay (MTase-Glo, MAP3K2 peptide substrate). Conditions: Table 3; MTase assay, MAP3K2 peptide substrate; read-out: IC50. The gist of the method:
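Luminescent readout of SAH production (coupled SAH→ATP conversion, MTase-Glo) after SMYD3 reacted 30 min at room temperature with 1.0 µM SAM and 10 µM MAP3K2 peptide, both final. Non-linear regression gave IC50 values.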

pIC50: −log10 of the molar value.

The term pIC50 denotes −log10 of the IC50, conventionally taken in molar units. For the compound `CCCOC(=O)N1CCN(C(=O)c2ccc3c(Cl)cc(-c4cncc(C)c4)nc3c2)CC1` [B005, Propyl 4-(4-chloro-2-(5-methylpyridin-3-yl)quinoline-7-carbonyl)piperazine-1-carboxylate], the pIC50 is 5.60.
Take `CCCOC(=O)N1CCN(C(=O)c2ccc3c(Cl)c(C)c(-c4cccc(C)c4)nc3c2)CC1` [B028, Propyl 4-(4-chloro-3-methyl-2-(m-tolyl)quinoline-7-carbonyl)piperazine-1-carboxylate]: the pIC50 was 5.96.
For the compound `CCCCOC(=O)N1C2CCCC1CN(C(=O)c1ccc3c(Cl)c4c(nc3c1)CCCC4)C2` [A041, Butyl 3-(9-chloro-5,6,7,8-tetrahydroacridine-3-carbonyl)-3,9-diazabicyclo[3.3.1]nonane-9-carboxylate], the pIC50 is 6.59.
To `CCCOC(=O)N1CCN(C(=O)c2ccc3c(Cl)cc(-c4ccc5c(c4)OCO5)nc3c2)CC1` [B163, Propyl 4-(2-(benzo[d][1,3]dioxol-5-yl)-4-chloroquinoline-7-carbonyl)piperazine-1-carboxylate] belongs 6.92; to `CCCOC(=O)N1CC2CC(C1)N2C(=O)c1ccc2c(Cl)c3c(nc2c1)CCCC3` [A014, Propyl 6-(9-chloro-5,6,7,8-tetrahydroacridine-3-carbonyl)-3,6-diazabicyclo[3.1.1]heptane-3-carboxylate], 6.00; to `CCCOC(=O)N1CCN(C(=O)c2ccc3c(Cl)cc(Nc4cccnc4)nc3c2)CC1` [B042, Propyl 4-(4-chloro-2-(pyridin-3-ylamino)quinoline-7-carbonyl)piperazine-1-carboxylate], 5.51.
To `CCCOC(=O)N1CCN(C(=O)c2ccc3c(Cl)c(C)c(-c4ccc(OC)cc4)nc3c2)C[C@H]1C` [B036, Propyl (R)-4-(4-chloro-2-(4-methoxyphenyl)-3-methylquinoline-7-carbonyl)-2-methylpiperazine-1-carboxylate] belongs 6.82; to `CCCOC(=O)N1CCN(C(=O)c2ccc3c(Cl)cc(-c4ccc(-c5cn[nH]c5)cc4)nc3c2)CC1` [B136, Propyl 4-(2-(4-(1H-pyrazol-4-yl)phenyl)-4-chloroquinoline-7-carbonyl)piperazine-1-carboxylate], 7.42; to `CCCOC(=O)N1CCN(C(=O)c2ccc3c(Cl)c4c(nc3c2)CCCC4)CC1COC(=O)C(C)C` (centres unmarked) [A054, Propyl 4-(9-chloro-5,6,7,8-tetrahydroacridine-3-carbonyl)-2-((isobutyryloxy)methyl)piperazine-1-carboxylate], 5.28.
Take `O=C(c1ccc2c(Cl)cc(-c3ccccc3)nc2c1)N1CCN(C(=O)c2cn(C3CC3)nn2)CC1` [D002, (4-Chloro-2-phenylquinolin-7-yl)(4-(1-cyclopropyl-1H-1,2,3-triazole-4-carbonyl)piperazin-1-yl)methanone]: the pIC50 is 8.40.
`CCCOC(=O)N1CCN(C(=O)c2ccc3c(Cl)cc(-c4ccc5[nH]nc(C)c5c4)nc3c2)CC1` [B176, Propyl 4-(4-chloro-2-(3-methyl-1H-indazol-5-yl)quinoline-7-carbonyl)piperazine-1-carboxylate]: the pIC50 is 6.31.
For the compound `CCCOC(=O)N1CCN(C(=O)c2ccc3c(Cl)cc(-c4ccc([N+](=O)[O-])cc4)nc3c2)CC1` [B072, Propyl 4-(4-chloro-2-(4-nitrophenyl)quinoline-7-carbonyl)piperazine-1-carboxylate], the pIC50 is 5.85.
For `CCCOC(=O)N1CCN(C(=O)c2ccc3c(Cl)c4c(nc3c2)CCCC4)C(C(N)=O)C1` (centres unmarked) [A059, Propyl 3-carbamoyl-4-(9-chloro-5,6,7,8-tetrahydroacridine-3-carbonyl)piperazine-1-carboxylate], the pIC50 is 5.64.
For the compound `CCCOC(=O)N1CCN(C(=O)c2ccc3c(Cl)cc(-c4ccc(C(=O)NCC)cc4)nc3c2)CC1` [B206, Propyl 4-(4-chloro-2-(4-(ethylcarbamoyl)phenyl)quinoline-7-carbonyl)piperazine-1-carboxylate], the pIC50 is 6.22.

The values above are taken from US20190071416A1, “COMPOUNDS FOR TREATMENT OF CANCER AND EPIGENETICS” (Agency For Science, Technology and Research, priority 2015, published 2019).
